Assay results from US20230095558A1, “IMMUNE CHECKPOINT TIM3-TARGETING BINDING PEPTIDE AND APPLICATION THEREOF” (Sparx Biotech (Jiangsu) Co., Ltd., priority 2020, published 2023).
No end group written: not given here.

Tests used:
TIM3 protein = biological target: T1, TIM3 protein (Homo sapiens, UniProt Q8TDQ0); test: SPR affinity of TIM3-targeting binding peptides to immobilized TIM3 protein; details: TIM3 sensor chip, dissociation rate
T1 sequence (Q8TDQ0 22-301): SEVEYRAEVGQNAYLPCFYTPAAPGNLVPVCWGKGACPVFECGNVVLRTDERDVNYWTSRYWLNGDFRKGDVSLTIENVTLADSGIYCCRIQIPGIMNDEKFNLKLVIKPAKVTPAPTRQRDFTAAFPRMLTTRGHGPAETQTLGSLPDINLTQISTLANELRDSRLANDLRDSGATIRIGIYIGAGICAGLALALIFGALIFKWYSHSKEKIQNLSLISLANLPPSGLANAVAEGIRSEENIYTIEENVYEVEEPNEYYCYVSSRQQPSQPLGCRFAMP
Method: The binding properties of the TIM3-targeting binding peptides to TIM3 and their competition experiments with Galectin-9-bound TIM3 were identified by flow cytometry and surface plasmon resonance (SPROpenSPR, Nicoya, V3.01) detection.
SPR assay: Affinity identification between the TIM3-targeting binding peptides and TIM3 was performed by immobilizing TIM3 protein (50 μg/mL) on the surface of a nanogold sensor chip upon activation of EDC/NHS. The TIM3-targeting binding peptides were diluted with buffer (PBS, pH 7.4) to concentrations of […], 19.5 μM, 39 μM and 78 μM, respectively. The competitive binding ability of the TIM3-targeting binding peptides to the ligand was identified by immobilizing the Galectin-9 protein (25 μg/mL) on a sensor chip at a detection concentration of 100 μg/mL for the TIM3-targeting binding peptides, and at a concentration of the mixed sample of 100 μg/mL TIM3-targeting binding peptides and 10 μg/mL TIM3 protein. The detection sample was loaded at a flow rate of 20 μL/min for about 7 min according to the instrument instructions. The KD, ka and kd values were calculated and analyzed by Trace Drawer Evaluation (version 2.0) software.

CD4+ T cells = test: Mixed lymphocyte reaction (DCs + CD4+ T cells), cytokine ELISA; type: cell-based, human; details: MLR; for expression level of INF-γ: ELISA on day 5, vs control groups (P<0.01 or P<0.05)
Method: Identification of the functional activity of TIM3-targeting binding peptides was performed by evaluating the levels of activation and proliferation of T cells, i.e., the levels of expression of IL-2 and IFN-γ cytokines. First, Dendritic Cells (DCs) and CD4+T cells were obtained by magnetic bead sorting, and then the levels of IFN-γ cytokines and IL-2 were detected by a Mixed Lymphocyte Reaction (MLR) experiment simulating close to human physiological environment and an ELISA experiment, to identify biological activities of the TIM3-targeting binding peptides.
Culture of Dendritic cells (DCs): Isolated dendritic cells (DCs) were cultured in Mo-DC differentiation medium (10^7 cells/10 mL medium), and 10 mL of the same medium was added to the cells after 3 days (the cells were cultured in the differentiation medium at 37° C., 5% CO2 and >95% humidity for 6 days). On day 7, DCs were resuspended in Mo-DC mature medium and cultured for further 3 days by addition of the Mo-DC differentiation medium. Matured DC and newly isolated T cells (DC and T cells from different donors) were mixed for mixed lymphocyte reaction. Approximately 1×10^4 DCs and 1×10^5 T cells per well were mixed and cultured in 200 μL RPMI-1640 medium with 10% FBS. To evaluate the activity (gradient action), competitive inhibition (P26 and ligand), synergistic effect (TIM3-targeting binding peptides and the PD-1 inhibitor Opdivo) of the binding peptides TIM3-targeting binding peptides, the corresponding concentrations of peptides, Opdivo, Galectin-9 were added to the corresponding wells to interact with the cells. The expression levels of IFN-γ (or IL-2) secreted in the cell supernatant were measured on day 5.
T cell activity were tested according to the instructions of the ELISA kit. Briefly, the capture antibody dilutions were coated on a 96-well plate overnight (24 hours) at room temperature at a concentration of 2 μg/mL in a volume of 100 μL. On the following day, the capture antibody solution was aspirated and the wells were washed three times with 300 μL wash buffer PBST (0.05% Tween®20, pH 7.2-7.4). Thereafter, the test wells were blocked with 300 μL of 1% BSA-PBS for 1 hour. After blocking, the test wells were washed in the same manner as above and 100 μL of the test samples or standards (in 1% BSA-PBS) were pipetted into each well for 2 hours. Thereafter, the detection antibody (125 ng/mL, 100 μL) was added to each well according to the instructions of the human IFN-γ/IL-2 Duo Set ELISA kit, and incubated for 2 hours. Then, HRP (100 μL, incubated for 20 minutes) and TMB (100 μL) were added. At the end of each step, each well was washed in the same manner as described above. After completion of the color development, the test wells were terminated with 12.5% H2SO4 (50 μL/well) and read on an ELISA plate reader at a wavelength of 450/570 nm. All experimental test wells were repeated.

MC38-hPDL1 tumor = test: In vivo anti-tumor growth in MC38-hPDL1 tumor-bearing mice humanized with TIM3; parameters: species or system C57BL/6J mice transduced with the human TIM3 gene; details: 21 days, intraperitoneal, P26 5 mg/kg QD, ATE 10 mg/kg twice a week
Source text: In this example, the anti-tumor growth effect of the TIM3-targeting binding peptides was farther examined in mice. The tumor inhibitory effect of the TIM3-targeting binding peptides on C57BL/6J MC38-hPDL1 tumor-bearing mice humanized with TIM3 was detected by the following experimental steps: 1. Inoculation of mice: […]-hPDL1 tumor cells (1×10^6 cells/mouse) were inoculated subcutaneously into C57BL/6J mice transduced with the human TIM3 gene. 2. Grouping: Mice were randomly divided into 4 groups with 7 mice per group when tumors reached 80 100 mm^3. 3. Administration: PBS (negative control), PD-L1 humanized antibody (positive control), polypeptides alone (experimental group) and polypeptides plus PD-L1 humanized antibody (synergistic effect group) were administered intraperitoneally to mice in each group, respectively. The amount of antibody used was 10 mg/kg twice a week. The amount of polypeptide was 5 mg/kg once daily. Tumor size and body weight of the mice were measured every 3 days. 4. Post-administration treatment: mice were euthanized 3 weeks after administration. Tumors were isolated, weighed, and photographed.

Sequence: ADFRVMADMSMY [P29, ADFRVMADMSMY]
- koff (TIM3 protein): 7.47×10^−3 S^−1
- expression level of INF-γ (CD4+ T cells): significantly increased

Sequence: SQEVFAWTFSPRWTTAPKAL [K3]
- koff (TIM3 protein): 1.32×10^−2 S^−1
- expression level of INF-γ (CD4+ T cells): significantly increased

Sequence: ALWPSSSMSSTI [P1303, ALWPSSSMSSTI]
- koff (TIM3 protein): 3.08×10^−3 S^−1
- expression level of INF-γ (CD4+ T cells): significantly increased

Sequence: WQQNNPHLWDVFLGVPRTTE [K5]
- koff (TIM3 protein): 1.60×10^−2 S^−1
- expression level of INF-γ (CD4+ T cells): significantly increased

Sequence: SPFYYSGHQWVPHPRQAASY [K10]
- koff (TIM3 protein): 2.30×10^−2 S^−1
- expression level of INF-γ (CD4+ T cells): significantly increased

Sequence: HDAFPRPHLFRN [P1301, HDAFPRPHLFRN]
- koff (TIM3 protein): 4.28×10^−3 S^−1
- expression level of INF-γ (CD4+ T cells): significantly increased

Sequence: GSWNTFRAQPTI [P24, GSWNTFRAQPTI]
- koff (TIM3 protein): 1.69×10^−5 S^−1

Sequence: SHDTRSPFTWGR [P1307, SHDTRSPFTWGR]
- koff (TIM3 protein): 7.89×10^−3 S^−1

Sequence: TFLNSVPTYSYW (A TIM3-targeting binding peptide) [P1310, 12-peptide targeting TIM3]
- expression level of INF-γ (CD4+ T cells): significantly increased

Sequence: QNPPLENTVYQEPFWQHAVD (A TIM3-targeting binding peptide) [K7, 20-peptide targeting TIM3]
- expression level of INF-γ (CD4+ T cells): significantly increased

Sequence: GLIPLTTMHIGK (A TIM3-targeting binding peptide) [P26, 12-peptide targeting TIM3]
- expression level of INF-γ (CD4+ T cells): significantly increased
- reversal of Galectin-9-mediated inhibition of CD4+ T cell activation (IFN-γ and IL-2 expression levels) (CD4+ T cells; P26 100 μg/mL, Galectin-9 5 μg/mL, ELISA): reversed
- tumor volumes (MC38-hPDL1 tumor; compared to control group): tended to decrease
- growth of the tumor (tumor weight) (MC38-hPDL1 tumor; vs control group P<0.05): inhibited

Sequence: HYEADPYEAWYDAWDDIHTY (A TIM3-targeting binding peptide) [K1, 20-peptide targeting TIM3]
- expression level of INF-γ (CD4+ T cells): significantly increased

Sequence: FTYAHPVSHRWESSVHVDQW [K2]
- koff (TIM3 protein): 1.03×10^−2 S^−1
- expression level of INF-γ (CD4+ T cells): significantly increased
